Measurements from patent publication US20090253634A1, “Methods and Compositions for the Treatment of Gastrointestinal Disorders” (MICROBIA, INC., priority 2005, published 2009).
Bridge positions count the residues as written; N and C are the ends. Peptide text beside a SMILES is read from it.

How the values were obtained:
[1] = system: abdominal EMG response to colorectal distension; assay: colorectal distension in WT and GC-C KO mice, basal and TNBS-induced; format: in vivo; details: for TNBS induced hypersensitivity to CRD: oral 0.01 μg/kg
Procedure: TNBS induced visceral hypersensitivity was assessed in WT and GC-C KO mice. Two groups (WT and GC-C KO) of male mice (22-25g) were surgically prepared for electromyographic (EMG) recordings. Three electrodes were implanted in the striated muscles of the abdomen for EMG recording of abdominal contractions. Colorectal distension (CRD) was performed with a balloon inflated by 10 s steps of 0.02 ml from 0 to 0.12 ml. Under basal conditions mice were submitted to control CRD (time 0) followed by oral administration of SEQ ID NO:3 (0.01 and 0.3 μg/kg) or vehicle only (distilled water, 1 ml) at 3 hours. One hour post dosing the CRD procedure was repeated. Abdominal EMG contractile response to colorectal distension in basal conditions in both WT and GC-C KO mice (12-14 mice per group) was determined in the absence of vehicle and SEQ ID NO:3, and the mean +/− standard error of the mean (SEM) is graplhically depicted in FIG. 7c.
For TNBS induced visceral hypersensitivity conditions, mice were submitted to control CRD (time 0) and TNBS (20 mg/kg) was administered at 3 days. Three days post intracolonic TNBS-induction animals were orally admistered SEQ ID NO:3 (0.01 and 0.3 μg/kg) or vehicle (distilled water, 1 ml) 1 hour before CRD. The effect of SEQ ID NO:3 (0.01 μg/kg) on abdominal response to colorectal distension after TNBS in WT and GC-C KO mice (12-14 per group) at a volume distension of […] was determined and the mean +/− standard error of the mean (SEM) is graphically depicted in FIG. 7d.

[2] = system: visceromotor response to colorectal distension; assay: water avoidance stress-induced hyperalgesia model and basal visceral nociception; format: in vivo, Wistar rats
Procedure: The effect of SEQ ID NO:3 on basal visceral nociception in a model of water avoidance stress-induced visceral hyperalgesia in adult male Wistar rats was tested. The stress involved confining rats to a platform surrounded by water for a period of 1 hour and then measuring their visceromotor response to colonic distension using electromyography (EMG).
Electrode leads were then tunneled subcutaneously and externalized laterally for future access. Following surgery, rats were housed in pairs and allowed to recover for at least 7 days. On the day of the experiment, animals were lightly anesthetized with halothane, and a lubricated latex balloon (6 cm) was inserted intra-anally into the descending colon. Animals were allowed to recover for 30 minutes, and colorectal distension (CRD) was initiated. The CRD procedure consisted of graded intensities of phasic CRD (10, 20, 40, 60 mmHg; 20 s duration; 4 min inter-stimulus interval). Visceromotor response (VMR) to CRD was quantified by measuring EMG activity. […] Animals were allowed 1 hour recovery and then SEQ ID NO:3 or vehicle was orally administered. At 1 hour following administration of SEQ ID NO:3 or vehicle CRD was repeated. […] The mean value (+/−SEM) of in vehicle and SEQ ID NO:3 treated groups (n=7 for each group) is graphically depicted in FIG. 7e.
To determine the effect of SEQ ID NO:3 in a model of water avoidance stress-induced visceral hyperalgesia, a baseline CRD was recorded and then the animals were subjected to 1 hour of water avoidance stress. For water avoidance stress, the test apparatus consisted of a Plexiglas tank with a block affixed to the center of the floor. The tank was filled with fresh room temperature water (25° C.) to within 1 cm of the top of the block. The animals were placed on the block for a period of 1 h. The sham water avoidance stress consisted in placing the rats on the same platform in a waterless container. A second CRD was performed at 24 hours post water avoidance stress. Following the second CRD, animals were allowed 1 hour recovery and then SEQ ID NO:3 or vehicle was orally administered. […]

C[C@@H]1NC(=O)[C@@H]2CCCN2C(=O)[C@H](CC(N)=O)NC(=O)[C@@H]2CSSC[C@H](N)C(=O)N[C@H]3CSSC[C@H](NC1=O)C(=O)N[C@@H]([C@@H](C)O)C(=O)NCC(=O)N[C@H](C(=O)N[C@@H](Cc1ccc(O)cc1)C(=O)O)CSSC[C@H](NC(=O)[C@H](Cc1ccc(O)cc1)NC(=O)[C@H](CCC(=O)O)NC3=O)C(=O)N2 [SEQ ID NO:3] (H-CCEYCCNPACTGCY-OH; disulfide 1-6, 2-10, 5-13; N-terminus and C-terminus assumed)
TNBS induced hypersensitivity to CRD ([1]; GC-C KO mice): not observed
TNBS induced hypersensitivity to CRD ([1]; WT mice, volume distension of 0.8 ml): reduces the TNBS induced hypersensitivity to CRD
EMG response to colorectal distension ([1]; basal conditions, WT mice, oral 0.01 and 0.3 μg/kg): decreased the EMG response to colorectal distension
basal visceral nociception ([2]; oral 3 μg/kg): had no effects
visceromotor response to CRD 24 hours after water avoidance stress ([2]; oral 3 μg/kg): exhibited anti-hyperalgesic properties
basal visceral nociception versus vehicle ([2]; oral 30 μg/kg): increased basal visceral nociception
